Measured values taken from patent US20110190162A1, “METHOD OF NUCLEIC ACID DELIVERY INTO THREE-DIMENSIONAL CELL CULTURE ARRAYS” (priority 2009, published 2011).

Legend:
[1] = tested on: parent HepG2 cells (control); assay: Acetaminophen toxicity, cell viability; type: cell-based; conditions: Homo sapiens, 24 h exposure, read-out: calculated IC50 (cell viability)
[2] = Metabolism-induced toxicity assay, cell viability; type: cell-based; conditions: human, HepG2 cells infected with Ad-3A4 (expressing CYP3A4); HepG2 transfected with Ad-3A4 at 40 MOI, 24 h exposure; read-out: calculated IC50 (cell viability)
Experimental: Metabolism-induced toxicity assay was performed with acetaminophen on HepG2 cells expressing CYP3A4. After transfecting HepG2 cells with Ad-3A4 at 40 MOI, HepG2 cells were exposed to acetaminophen at varying concentrations for 24 h. HepG2 cell viability decreased as acetaminophen concentration increased.

CC(=O)Nc1ccc(O)cc1 [acetaminophen]
IC50 [1]: 17.5 mM
IC50 at 24 h [2]: 7.3 mM
